Test results as given in the supplement of paper PMC10307832.

Assays:
Experiment in all cases: relative viability (nuclei count vs DMSO), 5 days (fraction); higher = more cells survive
Olaparib + Dasatinib = compound: O=C(c1cc(Cc2n[nH]c(=O)c3ccccc23)ccc1F)N1CCN(C(=O)C2CC2)CC1 [Olaparib] + Cc1nc(Nc2ncc(C(=O)Nc3c(C)cccc3Cl)s2)cc(N2CCN(CCO)CC2)n1 [Dasatinib] (partner 0.075 µM)
Method in brief: (§1)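 Lung cancer cell lines, seeded in 1536-well plates, were treated the following day by pin tool with a single drug or with five library-drug doses (not always all listed) in √10 steps on top of a fixed anchor-drug dose. Cells were fixed and nuclei stained in one step after 5 days, and nuclei were counted. Relative viability is the nuclei count for treated wells divided by that for vehicle wells, reported as medians of duplicate plates.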

Crizotinib + Trametinib = compound: C[C@@H](Oc1cc(-c2cnn(C3CCNCC3)c2)cnc1N)c1c(Cl)ccc(F)c1Cl [Crizotinib] + CC(=O)Nc1cccc(-n2c(=O)n(C3CC3)c(=O)c3c(Nc4ccc(I)cc4F)n(C)c(=O)c(C)c32)c1 [Trametinib] (partner 0.02 µM)
Method in brief: as §1

Carfilzomib + Tozasertib = compound: CC(C)C[C@H](NC(=O)[C@H](CCc1ccccc1)NC(=O)CN1CCOCC1)C(=O)N[C@@H](Cc1ccccc1)C(=O)N[C@@H](CC(C)C)C(=O)[C@@]1(C)CO1 [Carfilzomib] + Cc1cc(Nc2cc(N3CCN(C)CC3)nc(Sc3ccc(NC(=O)C4CC4)cc3)n2)n[nH]1 [Tozasertib] (partner 0.1 µM)
Method in brief: as §1

Olaparib + OSI-027 = compound: O=C(c1cc(Cc2n[nH]c(=O)c3ccccc23)ccc1F)N1CCN(C(=O)C2CC2)CC1 [Olaparib] + COc1cccc2cc(-c3nc([C@H]4CC[C@H](C(=O)O)CC4)n4ncnc(N)c34)[nH]c12 [OSI-027] (partner 0.5 µM)
Method in brief: as §1

| Cell Line | relative viability (Olaparib + Dasatinib; first compound 0.08 µM) | relative viability (Olaparib + Dasatinib; first compound 0.253 µM) | relative viability (Olaparib + Dasatinib; first compound 2.53 µM) | relative viability (Olaparib + Dasatinib; first compound 8 µM) | relative viability (Crizotinib + Trametinib; first compound 0.01 µM) | relative viability (Crizotinib + Trametinib; first compound 0.03162 µM) | relative viability (Crizotinib + Trametinib; first compound 0.1 µM) | relative viability (Crizotinib + Trametinib; first compound 0.3162 µM) | relative viability (Crizotinib + Trametinib; first compound 1 µM) | relative viability (Carfilzomib + Tozasertib; first compound 0.001 µM) | relative viability (Carfilzomib + Tozasertib; first compound 0.003162 µM) | relative viability (Carfilzomib + Tozasertib; first compound 0.01 µM) | relative viability (Carfilzomib + Tozasertib; first compound 0.03162 µM) | relative viability (Carfilzomib + Tozasertib; first compound 0.1 µM) | relative viability (Olaparib + OSI-027; first compound 0.08 µM) | relative viability (Olaparib + OSI-027; first compound 0.253 µM) | relative viability (Olaparib + OSI-027; first compound 2.53 µM) | relative viability (Olaparib + OSI-027; first compound 8 µM) |
| --- | --- | --- | --- | --- | --- | --- | --- | --- | --- | --- | --- | --- | --- | --- | --- | --- | --- | --- |
| PC-14 | 0.333 | 0.231 | 0.311 | 0.205 | 0.842 | 0.742 | 0.78 | 0.699 | 0.756 | 0.575 | 0.677 | 0.69 | 0.545 | 0.0359 | 1.27 | 0.795 | 0.805 | 0.471 |
| RERF-LC-KJ | 0.891 | 0.81 | 0.858 | 0.8 | 0.955 | 0.885 | 0.831 | 0.827 | 0.905 | 0.501 | 0.478 | 0.542 | 0.377 | 0.163 | 0.66 | 0.592 | 0.598 | 0.614 |
| SK-LU-1 | 0.197 | 0.159 | 0.181 | 0.161 | 0.455 | 0.396 | 0.539 | 0.457 | 0.512 | 0.342 | 0.371 | 0.343 | 0.0891 | 0.109 | 0.345 | 0.331 | 0.382 | 0.24 |
| SK-MES-1 | 0.41 | 0.323 | 0.431 | 0.228 | 0.511 | 0.561 | 0.54 | 0.621 | 0.57 | 0.939 | 1.07 | 0.998 | 0.725 | 0.136 | 0.674 | 0.553 | 0.577 | 0.459 |
| SW 900 | 0.57 | 0.815 | 0.624 | 0.615 | 0.907 | 0.9 | 0.752 | 0.938 | 0.614 | 0.508 | 0.682 | 0.142 | 0.149 | 0.164 | 0.693 | 0.561 | 0.565 | 0.458 |
| SW 1573 | 0.698 | 0.456 | 0.504 | 0.354 | 0.531 | 0.473 | 0.594 | 0.567 | 0.615 | 0.193 | 0.253 | 0.23 | 0.0683 | 0.051 | 0.738 | 0.675 | 0.471 | 0.517 |
| UMC-11 | 0.464 | 0.47 | 0.452 | 0.396 | 0.7 | 0.751 | 0.683 | 0.227 | 0.985 | 0.206 | 0.202 | 0.205 | 0.202 | 0.224 | 0.474 | 0.392 | 0.481 | 0.334 |
